Assay results published in patent publication US12202843B2, “Muscarinic receptor agonists” (Nxera Pharma UK Limited, priority 2014, dated 2025).

How the values were obtained:
Type in all cases: cell-based
[1] = target: T1, human muscarinic M4 receptor (Homo sapiens, UniProt P08173); test: Alphascreen Surefire phospho-ERK1/2 functional assay, M4; conditions: for EC50: CHO cells stably expressing human M4, read-out: pEC50 M4 (converted); for % Emax cf. ACh, M4: CHO cells stably expressing human M4, relative to ACh; for Emax: CHO, read-out: % Emax cf. ACh, M4, CHO cells stably expressing human M4, relative to ACh
T1 construct: expressed in transfected cells
T1 sequence (P08173 1-479): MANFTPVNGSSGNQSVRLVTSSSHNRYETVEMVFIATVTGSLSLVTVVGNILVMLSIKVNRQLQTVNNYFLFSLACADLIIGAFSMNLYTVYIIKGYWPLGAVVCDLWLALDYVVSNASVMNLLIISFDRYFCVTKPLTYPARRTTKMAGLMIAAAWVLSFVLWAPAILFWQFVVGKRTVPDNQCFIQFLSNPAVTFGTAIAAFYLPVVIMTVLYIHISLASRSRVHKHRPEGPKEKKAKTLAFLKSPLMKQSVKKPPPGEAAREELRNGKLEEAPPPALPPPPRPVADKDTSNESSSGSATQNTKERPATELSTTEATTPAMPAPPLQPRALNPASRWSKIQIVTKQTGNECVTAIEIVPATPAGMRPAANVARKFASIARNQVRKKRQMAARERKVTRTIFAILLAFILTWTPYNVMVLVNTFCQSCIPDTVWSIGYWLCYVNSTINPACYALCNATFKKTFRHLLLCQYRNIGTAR
Description: (§1) ERK1/2 phosphorylation is a downstream consequence of both Gq/11 and Gi/o protein coupled receptor activation, making it highly suitable for the assessment of M1, M3 (Gq/11 coupled) and M2, M4 receptors (Gi/o coupled), rather than using different assay formats for different receptor subtypes. CHO cells stably expressing the human muscarinic M1, M2, M3 or M4 receptor were plated (25K/well) onto 96-well tissue culture plates in MEM-alpha+10% dialysed FBS. Once adhered, cells were serum-starved overnight. Agonist stimulation was performed by the addition of 5 μL agonist to the cells for 5 min (37° C.). Media was removed and 50 μL of lysis buffer added. […] Plates were incubated for 2 h with gentle agitation in the dark and then read on a PHERAstar plate reader.
(§2) pEC50 and Emax figures were calculated from the resulting data for each receptor subtype.

[2] = target: T2, human muscarinic M1 receptor (Homo sapiens, UniProt P11229); test: Alphascreen Surefire phospho-ERK1/2 functional assay, M1; conditions: for EC50: CHO cells stably expressing human M1, read-out: pEC50 M1 (converted); for % Emax cf. ACh, M1: CHO cells stably expressing human M1, relative to ACh; for Emax: CHO, read-out: % Emax cf. ACh, M1, CHO cells stably expressing human M1, relative to ACh
T2 sequence (P11229 1-460): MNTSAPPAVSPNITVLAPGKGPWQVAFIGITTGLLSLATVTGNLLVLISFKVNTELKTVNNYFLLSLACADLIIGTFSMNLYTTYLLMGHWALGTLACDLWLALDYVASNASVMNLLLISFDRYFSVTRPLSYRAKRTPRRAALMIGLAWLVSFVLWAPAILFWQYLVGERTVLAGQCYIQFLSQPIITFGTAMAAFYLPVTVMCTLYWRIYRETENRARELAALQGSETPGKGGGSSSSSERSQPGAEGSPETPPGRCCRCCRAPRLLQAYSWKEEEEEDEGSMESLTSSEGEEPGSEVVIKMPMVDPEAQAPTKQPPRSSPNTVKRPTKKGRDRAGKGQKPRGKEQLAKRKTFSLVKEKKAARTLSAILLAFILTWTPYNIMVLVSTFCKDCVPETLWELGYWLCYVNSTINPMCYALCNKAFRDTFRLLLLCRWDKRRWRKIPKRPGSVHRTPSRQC
Description: as §1, §2

[3] = target: T3, human muscarinic M3 receptor (Homo sapiens, UniProt P20309); test: Alphascreen Surefire phospho-ERK1/2 functional assay, M3; conditions: for EC50: CHO cells stably expressing human M3, read-out: pEC50 M3 (converted); for Emax: CHO, read-out: % Emax cf. ACh, M3, CHO cells stably expressing human M3, relative to ACh; for % Emax cf. ACh, M3: CHO cells stably expressing human M3, relative to ACh
T3 construct: expressed in transfected cells
Description: as §1, §2

[4] = target: T4, human muscarinic M2 receptor (Homo sapiens, UniProt P08172); test: Alphascreen Surefire phospho-ERK1/2 functional assay, M2; conditions: for EC50: CHO cells stably expressing human M2, read-out: pEC50 M2 (converted); for Emax: CHO, read-out: % Emax cf. ACh, M2, CHO cells stably expressing human M2, relative to ACh; for % Emax cf. ACh, M2: CHO cells stably expressing human M2, relative to ACh
T4 sequence (P08172 1-466): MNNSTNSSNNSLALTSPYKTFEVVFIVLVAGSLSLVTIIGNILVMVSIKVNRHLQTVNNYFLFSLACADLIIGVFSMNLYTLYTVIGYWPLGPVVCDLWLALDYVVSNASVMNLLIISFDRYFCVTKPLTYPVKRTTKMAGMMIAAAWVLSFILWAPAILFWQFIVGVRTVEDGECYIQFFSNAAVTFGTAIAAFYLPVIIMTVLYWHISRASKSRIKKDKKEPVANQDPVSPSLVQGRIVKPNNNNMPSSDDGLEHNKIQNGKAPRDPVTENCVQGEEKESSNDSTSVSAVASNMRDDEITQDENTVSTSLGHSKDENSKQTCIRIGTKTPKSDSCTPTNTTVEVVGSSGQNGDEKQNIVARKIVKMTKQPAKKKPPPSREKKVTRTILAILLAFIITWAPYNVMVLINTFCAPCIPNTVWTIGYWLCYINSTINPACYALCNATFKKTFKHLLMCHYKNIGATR
Description: as §1, §2

T3 sequence (P20309 whole entry): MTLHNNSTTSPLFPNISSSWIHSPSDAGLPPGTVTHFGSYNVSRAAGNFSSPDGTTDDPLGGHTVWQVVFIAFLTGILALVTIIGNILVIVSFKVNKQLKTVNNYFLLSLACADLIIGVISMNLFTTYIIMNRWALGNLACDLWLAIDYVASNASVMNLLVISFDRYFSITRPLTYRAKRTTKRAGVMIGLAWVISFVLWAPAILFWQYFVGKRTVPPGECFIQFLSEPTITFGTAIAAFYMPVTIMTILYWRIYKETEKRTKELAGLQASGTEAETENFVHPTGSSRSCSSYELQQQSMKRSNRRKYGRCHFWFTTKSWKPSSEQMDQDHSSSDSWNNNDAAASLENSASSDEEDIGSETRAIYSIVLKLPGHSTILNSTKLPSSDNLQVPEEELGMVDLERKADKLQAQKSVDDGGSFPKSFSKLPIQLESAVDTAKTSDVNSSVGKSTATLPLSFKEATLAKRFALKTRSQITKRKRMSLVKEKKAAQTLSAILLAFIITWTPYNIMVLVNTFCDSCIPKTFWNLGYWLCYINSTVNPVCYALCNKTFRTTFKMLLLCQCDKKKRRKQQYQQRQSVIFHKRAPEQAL

Structure (SMILES)	EC50 [1] [nM]	EC50 [2] [nM]	EC50 [3] [µM]	Emax [3] [%]	EC50 [4] [µM]	Emax [4] [%]	Emax [1] [%]	Emax [2] [%]	other results
CCOC(=O)N1C2CCC1CC(N1CCC3(CC1)OC(=O)NC3CC)C2 (single isomer, unassigned) [Example 2-16 Isomer 1]	79.4	50.1	> 20	9	> 20	3	–	–	% Emax cf. ACh, M4 ([1]; listed as 2-16 Isomer 1): 19%; % Emax cf. ACh, M1 ([2]; listed as 2-16 Isomer 1): 36%
CCCN1CC2(CCN(C3CC4CCC(C3)N4C(=O)OCC)CC2)CC1=O (single isomer, unassigned) [Example 2-25 Isomer 2, ethyl 3-(3-oxo-2-propyl-2,8-diazaspiro[4.5]dec-8-yl)-8-azabicyclo[3.2.1]octane-8-carboxylate]	251	251	> 20	12	> 20	15	25	53	–
[2H]C([2H])(C)OC(=O)N1C2CCC1CC(N1CCC3(CC1)CNC(=O)C3)C2 (single isomer, unassigned) [Example 2-30 Isomer 2, (1,1-^2H2)ethyl 3-(3-oxo-2,8-diazaspiro[4.5]dec-8-yl)-8-azabicyclo[3.2.1]octane-8-carboxylate]	79.4	31.6	> 20	16	> 20	9	–	–	% Emax cf. ACh, M4 [1]: 29%; % Emax cf. ACh, M1 ([2]; listed as 2-30 Isomer 2): 66%
CCOC(=O)N1C2CCC1CC(N1CCC3(CC1)CC(=O)NC3CC)C2 (single isomer, unassigned) [Example 2-8 Isomer 1, ethyl 3-(1-ethyl-3-oxo-2,8-diazaspiro[4.5]decan-8-yl)-8-azabicyclo[3.2.1]octane-8-carboxylate]	> 20000	20	12.6	–	> 20	4	–	–	% Emax cf. ACh, M4 ([1]; listed as 2-8 Isomer 1): 23%; % Emax cf. ACh, M1 ([2]; listed as 2-8 Isomer 1): 52%; % Emax cf. ACh, M3 ([3]; listed as 2-8 Isomer 1): 50%
CCOC(=O)N1C2CCC1CC(N1CCC3(CC1)CNC(=O)O3)C2 (single isomer, unassigned) [Example 2-14 Isomer 2]	79.4	39.8	> 20	0	> 20	0	–	–	% Emax cf. ACh, M4 [1]: 60%; % Emax cf. ACh, M1 [2]: 92%
C#CCOC(=O)N1C2CCCC1CC(N1CCC3(CC1)CNC(=O)C3)C2 (single isomer, unassigned) [Example 5-2 Isomer 2, prop-2-yn-1-yl 3-(3-oxo-2,8-diazaspiro[4.5]dec-8-yl)-9-azabicyclo[3.3.1]nonane-9-carboxylate]	63.1	–	–	–	–	–	–	–	% Emax cf. ACh, M4 [1]: 20%; % Emax cf. ACh, M1 ([2]; listed as 5-2 Isomer 2): 48%; % Emax cf. ACh, M3 ([3]; listed as 5-2 Isomer 2): 4%; % Emax cf. ACh, M2 [4]: 3%
CC#CCOC(=O)N1C2CCC1CC(N1CCC3(CC1)CNC(=O)C3)C2 (single isomer, unassigned) [Example 2-5 Isomer 1]	25.1	25.1	> 20	7	0.158	39	87	98	–
CCOC(=O)N1C2CCC1CC(N1CCC3(CC1)CNC(=O)C3)C2 (single isomer, unassigned) [Example 2-2 Isomer 2, ethyl 3-(3-oxo-2,8-diazaspiro[4.5]dec-8-yl)-8-azabicyclo[3.2.1]octane-8-carboxylate]	–	–	–	–	–	0	–	86	% Emax cf. ACh, M4 ([1]; listed as 2-2 Isomer 2): 31%; % Emax cf. ACh, M3 ([3]; listed as 2-2 Isomer 2): 0%
CC#CCOC(=O)N1[C@@H]2CCC[C@H]1CC(N1CCC3(CC1)CNC(=O)C3)C2 (mixture of isomers) [Example 5-3]	31.6	31.6	6.31	19	> 20	7	37	80	–
C#CCOC(=O)N1C2CCC1CC(N1CCC3(CC1)CNC(=O)C3)C2 (single isomer, unassigned) [Example 2-4 Isomer 1]	126	100	> 20	–	> 20	–	64	92	% Emax cf. ACh, M3 ([3]; listed as 2-4 Isomer 1): 7%; % Emax cf. ACh, M2 ([4]; listed as 2-4 Isomer 1): 27%
O=C1CC2(CCN(C3CC4CCC(C3)N4C(=O)OCCF)CC2)CN1 (single isomer, unassigned) [Example 2-3 Isomer 2]	> 20000	79.4	> 20	0	> 20	4	–	–	% Emax cf. ACh, M4 ([1]; listed as 2-3 Isomer 2): 16%; % Emax cf. ACh, M1 ([2]; listed as 2-3 Isomer 2): 49%
CCOC(=O)N1C2CCCC1CC(N1CCC3(CC1)CNC(=O)C3)C2 (single isomer, unassigned) [Example 5-1 Isomer 1, ethyl 3-(3-oxo-2,8-diazaspiro[4.5]dec-8-yl)-9-azabicyclo[3.3.1]nonane-9-carboxylate]	251	316	> 20	8	7.94	17	–	–	% Emax cf. ACh, M4 ([1]; listed as 5-1 Isomer 1): 25%; % Emax cf. ACh, M1 ([2]; listed as 5-1 Isomer 1): 131%
CCCC1NC(=O)CC12CCN(C1CC3CCC(C1)N3C(=O)OCC)CC2 (single isomer, unassigned) [Example 2-9 Isomer 1]	2.51	5.01	> 20	22	> 20	2	78	91	–
C#CCOC(=O)N1C2CCC1CC(N1CCC3(CC1)CNC(=O)C3)C2 (single isomer, unassigned) [Example 2-4 Isomer 2]	25.1	20	–	–	–	–	–	–	% Emax cf. ACh, M4 [1]: 53%; % Emax cf. ACh, M1 [2]: 86%; % Emax cf. ACh, M3 ([3]; listed as 2-4 Isomer 2): 0%; % Emax cf. ACh, M2 ([4]; listed as 2-4 Isomer 2): 8%
